Measured values reported in patent US10519114B2, “Peptidomimetics and methods of using the same” (The Regents of the University of Michigan, priority 2016, dated 2019).

Assays:
[1] = target: T1, rat δ (C6-DOR) opioid receptor (Rattus norvegicus, UniProt P33533); assay: Radioligand binding assay, [3H]diprenorphine displacement, DOR; settings: displacement of 0.2 nM [3H]diprenorphine, C6-DOR membranes; mean ± standard error
T1 construct: expressed in transfected cells
Outline: (§1)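 Ki values come from logistic fits of competition data, with filter-bound radioactivity counted after displacement of 0.2 nM [3H]diprenorphine. Membranes were from rat receptor-transfected C6 cells (MOR, DOR) or human KOR-expressing CHO cells. Incubation ran 1 h at room temperature in pH 7.4 Tris-HCl.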

[2] = target: T2, human κ (CHO-KOR) opioid receptor (Homo sapiens, UniProt P41145); assay: Radioligand binding assay, [3H]diprenorphine displacement, KOR; settings: displacement of 0.2 nM [3H]diprenorphine, CHO-KOR membranes; mean ± standard error
T2 construct: expressed in transfected cells
Outline: as §1

[3] = target: T2, human κ (CHO-KOR) opioid receptor; assay: Stimulation of [35S]GTPγS binding, KOR; format: biochemical; settings: for EC50 / EC50 (nm) KOR: [35S]GTPγS binding, CHO-KOR membranes, mean ± standard error; for Emax / % stimulation KOR: [35S]GTPγS maximal stimulation compared with 10 μM standard U-69,593
Outline: (§2)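 Peptide-stimulated [35S]GTPγS (0.1 nM) binding, with 30 μM GDP, 5 mM MgCl2 and 100 mM NaCl at pH 7.4, was measured over 1 h at room temperature. Membranes came from rat MOR/DOR C6 or human KOR CHO cells. Filter-retained counts were expressed against 10 μM DAMGO, DPDPE or U69,593 respectively; maxima were fitted nonlinearly.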

[4] = target: T3, rat μ (C6-MOR) opioid receptor (Rattus norvegicus, UniProt P33535); assay: Stimulation of [35S]GTPγS binding, MOR; format: biochemical
T3 construct: expressed in transfected cells
Outline: as §2

[5] = target: T1, rat δ (C6-DOR) opioid receptor; assay: Stimulation of [35S]GTPγS binding, DOR; format: biochemical; settings: for EC50 / EC50 (nm) DOR: [35S]GTPγS binding, C6-DOR membranes, mean ± standard error; for Emax / % stimulation DOR: [35S]GTPγS maximal stimulation compared with 10 μM standard DPDPE
Outline: as §2

[6] = target: T3, rat μ (C6-MOR) opioid receptor; assay: Radioligand binding assay, [3H]diprenorphine displacement, MOR; settings: displacement of 0.2 nM [3H]diprenorphine, C6-MOR membranes; mean ± standard error
Outline: as §1

[7] = [35S]GTPγS binding, C6-MOR membranes, mean ± standard error
[8] = [35S]GTPγS maximal stimulation compared with 10 μM standard DAMGO

T1 sequence (P33533 whole entry): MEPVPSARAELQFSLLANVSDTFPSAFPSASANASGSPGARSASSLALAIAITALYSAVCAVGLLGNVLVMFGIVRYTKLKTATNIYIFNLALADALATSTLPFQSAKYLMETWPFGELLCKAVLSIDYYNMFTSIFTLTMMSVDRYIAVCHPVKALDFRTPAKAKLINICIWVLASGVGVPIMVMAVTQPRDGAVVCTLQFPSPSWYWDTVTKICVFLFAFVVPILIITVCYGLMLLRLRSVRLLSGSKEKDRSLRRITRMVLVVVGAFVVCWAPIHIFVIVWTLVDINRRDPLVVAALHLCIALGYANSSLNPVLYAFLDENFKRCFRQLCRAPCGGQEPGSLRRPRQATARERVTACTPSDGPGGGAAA
T3 sequence (P33535 whole entry): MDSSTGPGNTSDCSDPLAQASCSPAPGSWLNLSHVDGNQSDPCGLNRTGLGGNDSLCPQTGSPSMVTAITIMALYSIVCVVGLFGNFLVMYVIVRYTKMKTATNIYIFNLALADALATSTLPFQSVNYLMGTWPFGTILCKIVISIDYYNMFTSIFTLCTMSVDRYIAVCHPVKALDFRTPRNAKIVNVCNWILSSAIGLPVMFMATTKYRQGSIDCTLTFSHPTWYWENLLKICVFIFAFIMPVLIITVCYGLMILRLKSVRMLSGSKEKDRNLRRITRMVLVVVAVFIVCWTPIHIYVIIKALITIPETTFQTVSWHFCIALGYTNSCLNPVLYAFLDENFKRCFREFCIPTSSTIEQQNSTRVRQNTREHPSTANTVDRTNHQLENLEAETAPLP
T2 sequence (P41145 whole entry): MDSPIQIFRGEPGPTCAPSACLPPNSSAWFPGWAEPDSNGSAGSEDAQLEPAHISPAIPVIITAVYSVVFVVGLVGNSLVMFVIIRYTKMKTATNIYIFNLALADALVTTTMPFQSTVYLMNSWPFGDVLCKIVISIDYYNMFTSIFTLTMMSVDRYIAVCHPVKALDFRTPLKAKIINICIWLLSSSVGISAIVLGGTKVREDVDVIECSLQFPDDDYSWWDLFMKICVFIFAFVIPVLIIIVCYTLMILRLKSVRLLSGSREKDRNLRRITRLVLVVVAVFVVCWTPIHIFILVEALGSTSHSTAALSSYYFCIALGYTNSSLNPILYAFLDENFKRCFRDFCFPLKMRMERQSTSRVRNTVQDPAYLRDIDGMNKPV

| Structure (SMILES) | Ki [1] | Ki [2] | EC50 [3] | Emax [3] | EC50 [4, 7] | Emax [4, 8] | EC50 [5] | Emax [5] | Ki [6] | EC50 (nm) MOR [4, 7] | % stimulation MOR [4, 8] | EC50 (nm) DOR [5] | % stimulation DOR [5] | EC50 (nm) KOR [3] | % stimulation KOR [3] |
| --- | --- | --- | --- | --- | --- | --- | --- | --- | --- | --- | --- | --- | --- | --- | --- |
| CC(=O)N1CC[C@@H](NC(=O)[C@@H](N)Cc2c(C)cc(O)cc2C)c2cc(Cc3ccccc3)cc(C)c21 [Compound 1055] | 1.88 ± 0.53 nM | 80 ± 20 nM | 930 ± 600 nM | 32 ± 2% | 7.05 ± 2.32 nM | 86 ± 3% | 384 ± 296 nM | 30 ± 3% | 0.18 ± 0.04 nM |  |  |  |  |  |  |
| Cc1cc(O)cc(C)c1C[C@H](N)C(=O)N[C@@H]1CCNc2ccc(CN3CCC4(CCCCC4)CC3)cc21 [Compound 1060] | 36.5 ± 18.9 nM | 2.44 ± 0.99 nM | 92.1 ± 15.5 nM | 71.6 ± 4.38% |  |  |  |  | 0.22 ± 0.1 nM | dns | dns | dns | dns |  |  |
| Cc1cc(O)cc(C)c1C[C@H](N)C(=O)N[C@@H]1CCNc2ccc(CN3CCc4cccc(C(F)(F)F)c4C3)cc21 [Compound 1061] | 13.6 ± 1.27 nM | 48.5 ± 17.5 nM |  |  | 8.88 ± 2.71 nM | 37.8 ± 2.55% |  |  | 0.17 ± 0.03 nM |  |  | dns | dns | dns | dns |
| CC(=O)N1CC[C@@H](NC(=O)[C@@H](N)Cc2c(C)cc(O)cc2C)c2cc(CN3CCc4ccc(F)cc4C3)ccc21 [Compound 1062] | 0.77 ± 0.23 nM | 16.2 ± 7.94 nM | 234 ± 70.1 nM | 34.2 ± 8.24% | 23.7 ± 26.7 nM | 99.6 ± 1.92% |  |  | 0.05 ± 0.01 nM |  |  | dns | dns |  |  |
| COc1cc(Cc2ccccc2)cc2c1NCC[C@H]2NC(=O)[C@@H](N)Cc1c(C)cc(O)cc1C [Compound 1063] | 3.08 ± 1 nM | 29.9 ± 10.4 nM |  |  | 2.5 ± 0.45 nM | 84.1 ± 0.96% | 63.3 ± 12.2 nM | 50.8 ± 9.61% | 0.24 ± 0.11 nM |  |  |  |  | dns | dns |
| Cc1cc(O)cc(C)c1C[C@H](N)C(=O)N[C@@H]1CCNc2ccc(Cc3cc4ccccc4o3)cc21 [Compound 1065] | 4.76 ± 1.9 nM | 41.4 ± 22.4 nM |  |  | 1.14 ± 0.49 nM | 97.9 ± 1.43% |  | 13.9% | 0.11 ± 0.03 nM |  |  | dns |  | dns | dns |
| CC(=O)N1CC[C@@H](NC(=O)[C@@H](N)Cc2c(C)cc(O)cc2C)c2cc(CN3CCc4cccc(C(F)(F)F)c4C3)ccc21 [Compound 1066] | 3.05 ± 0.88 nM | 59.2 ± 12.4 nM |  |  | 1.25 ± 0.44 nM | 55.1 ± 2.83% |  |  | 0.16 ± 0.01 nM |  |  | dns | dns | dns | dns |
| CC(=O)N1CC[C@@H](NC(=O)[C@@H](N)Cc2c(C)cc(O)cc2C)c2cc(-c3ccccc3)ccc21 [Compound 1067] | 1.32 ± 0.37 nM | 35.8 ± 16.8 nM | 291 ± 32.5 nM | 69.1 ± 5.04% | 5.64 ± 0.35 nM | 51.3 ± 8.48% | 1520 ± 889 nM | 37.4 ± 6.31% | 0.88 ± 0.4 nM |  |  |  |  |  |  |
| Cc1cc(O)cc(C)c1C[C@H](N)C(=O)N[C@@H]1CCNc2ccc(-c3ccccc3)cc21 [Compound 1068] | 13.4 ± 4.32 nM | 165 ± 110 nM | 933 ± 219 nM | 57.1 ± 2.63% | 11.8 ± 5.77 nM | 23.7 ± 5.88% |  |  | 1.11 ± 0.44 nM |  |  | dns | dns |  |  |
| Cc1cc(O)cc(C)c1C[C@H](N)C(=O)N[C@@H]1CCN2CCCc3cc(Cc4ccccc4)cc1c32 [Compound 1069] | 2.26 ± 0.8 nM | 6.62 ± 2.57 nM | 1000 nM | 78.4% | 1.12 ± 0.52 nM | 95.2 ± 3.99% | 570 ± 298 nM | 50.4 ± 13.7% | 0.39 ± 0.14 nM |  |  |  |  |  |  |
| COc1cc(Cc2ccccc2)cc2c1N(C(C)=O)CC[C@H]2NC(=O)[C@@H](N)Cc1c(C)cc(O)cc1C [Compound 1076] | 2.16 ± 1.15 nM | 44.8 ± 16.9 nM | 1480 ± 639 nM | 16.1 ± 5.54% | 0.78 ± 0.2 nM | 95.8 ± 10.2% | 4.62 ± 1.9 nM | 44.6 ± 3.75% | 0.14 ± 0.01 nM |  |  |  |  |  |  |
| Cc1cc(O)cc(C)c1C[C@H](N)C(=O)N[C@H]1c2cc(Cc3ccccc3)ccc2NC[C@H]1C [Compound 1078] | 2.02 ± 0.21 nM | 17.7 ± 2.24 nM | 900 ± 326 nM | 26.4 ± 5.75% | 3.14 ± 1.51 nM | 80.2 ± 7.89% | 30.9 nM | 21.4% | 0.75 ± 0.03 nM |  |  |  |  |  |  |
